Data on 19 compounds can be found in PubChem BioAssay AID256 (DTP/NCI, 2004).

Toxic doses and inconclusive results are not listed.

This experiment has as its system CD2F1 mice, L1210 leukemia ip, survival T/C. Kind of experiment: NCI In Vivo Anticancer Drug Screen. Data for tumor model L1210 Leukemia (intraperitoneal) in CD2F1 (CDF1) mice. The settings on record: higher = longer survival. An outline of the steps: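 Antitumor effect is scored in animals hosting a serially transplanted tumor. Values compare compound-dosed animals against vehicle-only controls as a simple quotient.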

Where [1] appears, read: endpoint: mean survival time, dose: 100.0 mg/kg/injection, schedule: Q01DX001 (ip), vehicle: saline.
[2] abbreviates: endpoint: mean survival time, dose: 200.0 mg/kg/injection, schedule: Q01DX001 (ip), vehicle: saline.
The mark [3] stands for this setting: endpoint: mean survival time, dose: 400.0 mg/kg/injection, schedule: Q01DX001 (ip), vehicle: saline.
[4] abbreviates: endpoint: mean survival time, dose: 100.0 mg/kg/injection, schedule: Q01DX009 (ip), vehicle: saline with Tween-80.
The mark [5] stands for this setting: endpoint: mean survival time, dose: 200.0 mg/kg/injection, schedule: Q01DX009 (ip), vehicle: saline with Tween-80.
Where [6] appears, read: endpoint: mean survival time, dose: 400.0 mg/kg/injection, schedule: Q01DX009 (ip), vehicle: saline with Tween-80.

On to `O=C1CCCC2c3ccccc3NC12` (centres undefined), for which the T/C runs as follows: under setting [1], 98 % of control; under setting [2], 102 % of control; under setting [3], 101 % of control.

As to `NCC(S)c1ccc(Cl)cc1` (centres undefined), the T/C was 98 % of control (endpoint: mean survival time, dose: 12.5 mg/kg/injection, schedule: Q04DX003 (ip), vehicle: saline); 93 % of control (endpoint: mean survival time, dose: 25.0 mg/kg/injection, schedule: Q04DX003 (ip), vehicle: saline); 96 % of control (endpoint: mean survival time, dose: 50.0 mg/kg/injection, schedule: Q04DX003 (ip), vehicle: saline).

Turning to `OC(CN1CCCCC1)c1cccs1` (centres undefined), the T/C (endpoint: mean survival time, dose: 6.25 mg/kg/injection, schedule: Q01DX009 (ip), vehicle: saline with Tween-80) is 102 % of control; the T/C (endpoint: mean survival time, dose: 12.5 mg/kg/injection, schedule: Q01DX009 (ip), vehicle: saline with Tween-80) is 98 % of control; the T/C (endpoint: mean survival time, dose: 25.0 mg/kg/injection, schedule: Q01DX009 (ip), vehicle: saline with Tween-80) was 102 % of control.

For `Cn1cnc([N+](=O)[O-])c1Sc1ncnc2c1cnn2C1OC(CO)C(O)C1O` (centres undefined), the T/C runs as follows: (endpoint: mean survival time, dose: 25.0 mg/kg/injection, schedule: Q01DX009 (ip), vehicle: other) 95 % of control; (endpoint: mean survival time, dose: 50.0 mg/kg/injection, schedule: Q01DX009 (ip), vehicle: other) 114 % of control; (endpoint: mean survival time, dose: 100.0 mg/kg/injection, schedule: Q01DX009 (ip), vehicle: other) 97 % of control; (endpoint: mean survival time, dose: 200.0 mg/kg/injection, schedule: Q01DX009 (ip), vehicle: other) 108 % of control; (endpoint: mean survival time, dose: 400.0 mg/kg/injection, schedule: Q01DX009 (ip), vehicle: other) 117 % of control; (endpoint: median survival time, dose: 10.0 mg/kg/injection, schedule: Q01DX005 (ip), vehicle: saline with Tween-80) 96 % of control. The T/C is, setting by setting: (endpoint: median survival time, dose: 20.0 mg/kg/injection, schedule: Q01DX005 (ip), vehicle: saline with Tween-80) 103 % of control; (endpoint: median survival time, dose: 40.0 mg/kg/injection, schedule: Q01DX005 (ip), vehicle: saline with Tween-80) 103 % of control; (endpoint: median survival time, dose: 80.0 mg/kg/injection, schedule: Q01DX005 (ip), vehicle: saline with Tween-80) 102 % of control; (endpoint: median survival time, dose: 160.0 mg/kg/injection, schedule: Q01DX005 (ip), vehicle: saline with Tween-80) 91 % of control.

Take `[C-]#[O+].[C-]#[O+].[C-]#[O+].[C-]#[O+].[C-]#[O+].[Cr].c1ccc([PH+](c2ccccc2)c2ccccc2)cc1`: the T/C (endpoint: mean survival time, dose: 50.0 mg/kg/injection, schedule: Q01DX009 (ip), vehicle: saline with Tween-80) is 100 % of control; the T/C under setting [4] was 91 % of control; the T/C under setting [5] is 93 % of control.

For the compound `O=C1Nc2ccc(C(=O)O)c(O)c2C1=O`, the T/C (endpoint: mean survival time, dose: 100.0 mg/kg/injection, schedule: Q01DX001 (ip), vehicle: saline with Tween-80) is 96 % of control; the T/C (endpoint: mean survival time, dose: 200.0 mg/kg/injection, schedule: Q01DX001 (ip), vehicle: saline with Tween-80) was 100 % of control; the T/C (endpoint: mean survival time, dose: 400.0 mg/kg/injection, schedule: Q01DX001 (ip), vehicle: saline with Tween-80) was 89 % of control.

For the compound `O=c1[nH]cnc2c1ccn2C1OC(CO)C(O)C1O` (centres undefined), the T/C by setting is: (endpoint: mean survival time, dose: 6.25 mg/kg/injection, schedule: Q01DX009 (ip), vehicle: saline) 111 % of control; (endpoint: mean survival time, dose: 6.25 mg/kg/injection, schedule: Q04DX003 (ip), vehicle: saline sonified) 106 % of control; (endpoint: mean survival time, dose: 12.5 mg/kg/injection, schedule: Q01DX009 (ip), vehicle: saline) 90 % of control; (endpoint: mean survival time, dose: 12.5 mg/kg/injection, schedule: Q04DX003 (ip), vehicle: saline sonified) 109 % of control; (endpoint: mean survival time, dose: 16.7 mg/kg/injection, schedule: Q04DX003 (ip), vehicle: saline sonified) 121 % of control; (endpoint: mean survival time, dose: 25.0 mg/kg/injection, schedule: Q04DX003 (ip), vehicle: saline sonified) 113 % of control. In addition, the T/C (endpoint: mean survival time, dose: 37.5 mg/kg/injection, schedule: Q04DX003 (ip), vehicle: saline sonified) is 119 % of control.

Consider `O=[N+]([O-])c1ccc(C(O)C(Br)[N+](=O)[O-])cc1` (centres undefined), for which the T/C is 93 % of control under setting [4]; 101 % of control (endpoint: mean survival time, dose: 100.0 mg/kg/injection, schedule: Q04DX003 (ip), vehicle: saline with Tween-80); 94 % of control under setting [5]; 98 % of control (endpoint: mean survival time, dose: 200.0 mg/kg/injection, schedule: Q04DX003 (ip), vehicle: saline with Tween-80); 87 % of control under setting [6]; 95 % of control (endpoint: mean survival time, dose: 400.0 mg/kg/injection, schedule: Q04DX003 (ip), vehicle: saline with Tween-80).

Take `NC(=O)C(N)CCO` (centres undefined): the T/C (endpoint: mean survival time, dose: 75.0 mg/kg/injection, schedule: Q01DX009 (ip), vehicle: saline) is 92 % of control; the T/C (endpoint: mean survival time, dose: 75.0 mg/kg/injection, schedule: Q04DX003 (ip), vehicle: saline) is 97 % of control; the T/C (endpoint: mean survival time, dose: 150.0 mg/kg/injection, schedule: Q01DX009 (ip), vehicle: saline) was 102 % of control; the T/C (endpoint: mean survival time, dose: 150.0 mg/kg/injection, schedule: Q04DX003 (ip), vehicle: saline) is 95 % of control; the T/C (endpoint: mean survival time, dose: 300.0 mg/kg/injection, schedule: Q01DX009 (ip), vehicle: saline) was 97 % of control; the T/C (endpoint: mean survival time, dose: 300.0 mg/kg/injection, schedule: Q04DX003 (ip), vehicle: saline) was 95 % of control.

As to `CCOC(=O)CCC(NC(=O)c1cc(Cl)c(N(CC)Cc2cnc3nc(N)nc(N)c3n2)c(Cl)c1)C(=O)OCC` (centres undefined), where the note is “endpoint: mean survival time, dose: 25.0 mg/kg/injection, schedule: Q01DX009 (ip), vehicle: Klucel (hydroxypropylcellulose) (HPC)”, the T/C was 170 % of control.

On to `CC(O)C(O)C(O)C(O)CO` (centres undefined) (tested in a mixture with another compound), for which the T/C is 87 % of control (endpoint: mean survival time, dose: 75.0 mg/kg/injection, schedule: Q01DX001 (ip), vehicle: saline with Tween-80); 93 % of control (endpoint: mean survival time, dose: 150.0 mg/kg/injection, schedule: Q01DX001 (ip), vehicle: saline with Tween-80); 86 % of control (endpoint: mean survival time, dose: 300.0 mg/kg/injection, schedule: Q01DX001 (ip), vehicle: saline with Tween-80).

On to `Cc1cc(=NO)cc(C)n1O`, for which the T/C (endpoint: median survival time, dose: 25.0 mg/kg/injection, schedule: Q01DX009 (ip), vehicle: distilled water + alcohol) was 108 % of control; the T/C (endpoint: median survival time, dose: 50.0 mg/kg/injection, schedule: Q01DX009 (ip), vehicle: distilled water + alcohol) was 104 % of control; the T/C (endpoint: median survival time, dose: 100.0 mg/kg/injection, schedule: Q01DX009 (ip), vehicle: distilled water + alcohol) is 112 % of control; the T/C (endpoint: median survival time, dose: 200.0 mg/kg/injection, schedule: Q01DX009 (ip), vehicle: distilled water + alcohol) was 108 % of control; the T/C (endpoint: median survival time, dose: 400.0 mg/kg/injection, schedule: Q01DX009 (ip), vehicle: distilled water + alcohol) is 97 % of control.

`CO[C@@]12[C@H](COC(N)=O)C3=C(C(=O)C(C)=C(NCCO)C3=O)N1C[C@@H]1N[C@@H]12`: the T/C was 96 % of control (endpoint: mean survival time, dose: 10.2 mg/kg/injection, schedule: Q01DX001 (ip), vehicle: saline); 96 % of control (endpoint: mean survival time, dose: 15.5 mg/kg/injection, schedule: Q01DX001 (ip), vehicle: saline); 112 % of control (endpoint: mean survival time, dose: 23.2 mg/kg/injection, schedule: Q01DX001 (ip), vehicle: saline).

As to `Nc1cccc2sccc12`, the T/C is, setting by setting: (endpoint: mean survival time, dose: 100.0 mg/kg/injection, schedule: Q04DX003 (ip), vehicle: other) 106 % of control; (endpoint: mean survival time, dose: 200.0 mg/kg/injection, schedule: Q04DX003 (ip), vehicle: other) 113 % of control; (endpoint: mean survival time, dose: 400.0 mg/kg/injection, schedule: Q04DX003 (ip), vehicle: other) 101 % of control.

Consider `CCNC(=O)OC(C)C`, for which the T/C (endpoint: mean survival time, dose: 100.0 mg/kg/injection, schedule: Q04DX002 (ip), vehicle: saline with Tween-80) is 90 % of control; the T/C (endpoint: mean survival time, dose: 200.0 mg/kg/injection, schedule: Q04DX002 (ip), vehicle: saline with Tween-80) is 102 % of control; the T/C (endpoint: mean survival time, dose: 400.0 mg/kg/injection, schedule: Q04DX002 (ip), vehicle: saline with Tween-80) is 94 % of control.

Regarding `CCCCc1ccc(N=C(N)N=C(N)N)cc1`, the T/C reads like this: (endpoint: mean survival time, dose: 9.5 mg/kg/injection, schedule: Q01DX001 (ip), vehicle: other) 103 % of control; (endpoint: mean survival time, dose: 19.0 mg/kg/injection, schedule: Q01DX001 (ip), vehicle: other) 94 % of control; (endpoint: mean survival time, dose: 38.0 mg/kg/injection, schedule: Q01DX001 (ip), vehicle: other) 91 % of control.

In the case of `O=C1NC(=S)NC(=O)C1Cc1ccccc1O`, the T/C reads like this: under setting [1], 100 % of control; under setting [2], 100 % of control; under setting [3], 101 % of control.

As for `O=C1[O][Hg][c]2cc([N+](=O)[O-])cc3cccc1c23.O=C1[O][Hg][c]2cccc3cc([N+](=O)[O-])cc1c23`, the T/C is, setting by setting: under setting [1], 94 % of control; under setting [2], 94 % of control; under setting [3], 94 % of control.

As to `Cc1ccc2nc(-c3cccc([N+](=O)[O-])c3)oc(=O)c2c1`, the T/C is, setting by setting: under setting [4], 97 % of control; under setting [5], 96 % of control; under setting [6], 94 % of control.
